The numbers were not newly measured in US6342520B1, “Locally injectable chemotherapeutics” (priority 2000, dated 2002), which cites them from elsewhere.

Each structure is given as a SMILES string.

For this data set the following is noted: Phase II clinical trials, administration by general circulation.

On to `CC(=O)OC[C@]12CCC(C)=C[C@H]1O[C@@H]1[C@H](O)[C@@H](OC(C)=O)[C@@]2(C)[C@]12CO2` [Anguidine], for which the hematologic toxicity result was “considerable hematologic toxicity” and the “overall tumor response rate” value was “low”.
